Results reported in publication PMC12040169 (PLOS Biology, 2025).

assay: in vitro; conditions: human, hela cells, % viability

Row | Compound | viability at 28.5 h, 10 µM [%]
1 | Cc1cc(C(F)(F)F)nc2sc(C(=O)c3ccc4c(c3)OCO4)c(N)c12 [CBK074388] | 94.5
2 | CCOc1cc(S(=O)(=O)NCc2ccncc2)ccc1Br [CBK270147] | 82.3
3 | Cc1cc(NC(=O)CC(C)(C)C)nc2c1c(=O)oc1ccccc12 [CBK287444] | 101
4 | CC(=O)c1ccc(NC(=O)c2cccc(S(=O)(=O)N3CCCCC3)c2)cc1 [CBK263246] | 96.4
5 | Cc1ccc(C(=O)Nc2cc(C)nn2C)c(N2CCOCC2)n1 [CBK106221] | 104
6 | Cc1c(-c2ccc(OCC(N)=O)cc2)nc2ccc(Br)cc2c1C(=O)O [CBK287050] | 93.1
7 | Cc1ccc(S(=O)(=O)Cc2cccc(C(=O)N3CCN(Cc4ccccc4)CC3)c2)cc1 [CBK269596] | 93
8 | O=C(Cc1ccccc1)Nc1nnc(Cc2ccc3c(c2)OCCO3)o1 [CBK287661] | 94.2
9 | CN(C)CCCC(=O)N1CCN(c2ncccn2)CC1 [CBK144523] | 116
10 | CCn1cc(C2CN(S(=O)(=O)c3c(C)c(C)cc(C)c3C)CCO2)cn1 (stereo not drawn) [CBK306171] | 63.8
11 | OCCc1ccc(Nc2cc(-c3cccnc3)ncn2)cc1 [CBK090768] | 114
12 | CN(C)C(=O)C1(Cc2ccccc2-c2cccs2)CCN(C(=O)Cc2ccccc2)CC1 [CBK285687] | 92.6
13 | COc1cc(CNc2ccc(N3CCOCC3)cc2)ccc1OCc1ccc(Cl)cc1Cl [CBK074516] | 93.1
14 | Cc1ccc(C(=O)N2CCC(O)(c3cccnc3F)CC2)o1 [CBK284358] | 94.4
15 | COc1cccc(CNCC2CCCO2)c1OCc1ccccc1 (stereo not drawn) [CBK269798C] | 105
16 | CC(=O)Nc1ccc(-c2cccc(COC3CCN(C(=O)Cc4ccc(Cl)c(Cl)c4)CC3)c2)cc1 [CBK149487] | 109
17 | CC(=O)N1CCC(C(=O)NC(=O)Nc2ccccc2F)CC1 [CBK034848] | 107
18 | Cn1cc(CCNC(=O)N(Cc2ccccn2)CC2CCCO2)cn1 (stereo not drawn) [CBK306973] | 99.2
19 | Cc1cc(OCC(O)CN2CCN(CCO)CC2)cc(C)c1Cl (stereo not drawn) [CBK278248C] | 92.7
20 | CCOc1ccc(NC(=O)Cn2c3c(c(-c4ccccc4)cc2=O)CCCC3)cc1 [CBK294457] | 85.8
21 | Cc1nn(CC(=O)NC2CC2)c(=O)c2cc3sccc3n12 [CBK284047] | 94.9
22 | O=C(NS(=O)(=O)c1cccc(-c2nnco2)c1)C1C2C3CCC(C3)C12 (stereo not drawn) [CBK306488] | 89
23 | O=C(O)C1CCN(C(=O)Cc2c[nH]c3ccccc23)CC1 [CBK202747] | 82.7

Row | Compound | viability at 28.5 h, 10 µM [%]
24 | c1ccc2c(c1)OCC(COc1cncc(OC3CCN(CC4CCCCC4)C3)n1)O2 (stereo not drawn) [CBK084387] | 109
25 | O=C(Cc1c[nH]c(=O)[nH]c1=O)Nc1ncc(Cc2ccc(F)cc2)s1 [CBK285674] | 103
26 | CC1(C)Cc2c(ccc3ccccc23)C(CCN2CCCCC2)=N1 [CBK261746] | 116
27 | COCCNc1nccnc1-c1ccsc1 [CBK038008] | 95.4
28 | Cc1ccc(C)c(OCC(=O)Nc2ccccc2C(=O)N2CCN(C)CC2)c1 [CBK269924] | 91.1
29 | CCC(C)(C)C(=O)Nc1ccc(Br)c2ccccc12 [CBK091342] | 79.7
30 | O=C(O)CC(Cc1ccc(Cl)cc1)C(=O)Nc1ccc([N+](=O)[O-])cc1 (stereo not drawn) [CBK261973] | 89.7
31 | Cc1cccc(C(=O)NCCCNC(=O)c2ccncc2)c1 [CBK269572] | 92.8
32 | CCCc1c(Cc2c(Cl)cccc2Cl)c(=O)n(C)n1C [CBK115466] | 93
33 | O/N=C1\CC(c2ccccc2)Oc2ccc(Cl)cc21 (stereo not drawn) [CBK288370] | 91.1
34 | COc1ccc(CN2CCN(C(=O)NS(=O)(=O)c3ccc(C)cc3)CC2)cc1F [CBK297156] | 98.5
35 | CC(C)(C)c1ccc(-c2cnc3nc(N)ccc3c2)cc1 [CBK061888] | 88.3
36 | Clc1ccc(-c2ccc(/C=N/c3ccc4oc(-c5ccccc5)nc4c3)o2)cc1 [CBK261969] | 102
37 | Cc1ccccc1-n1c(C)cc(C(=O)CSc2nncn2C)c1C [CBK298330] | 91.9
38 | NC(=O)c1c(NC(=S)NC(=O)c2ccccc2Br)sc2c1CCC2 [CBK265543] | 89.3
39 | CC(NC(=O)C1CCN(Cc2nccs2)CC1)c1ccc(F)cc1 (stereo not drawn) [CBK148056] | 102
40 | CC(C)(C)n1ncc2c(=O)n(CC(=O)Nc3ccccc3)cnc21 [CBK287541] | 115
41 | CCn1c(CN[C@@H]2CCC[C@H]2Cc2cc(C)no2)cnc1SC [CBK282965] | 96.6
42 | Cc1ccc(C(C)(C)CC(C)NCc2ccc(Cl)cc2)o1 (stereo not drawn) [CBK262873] | 95.8
43 | COc1ccc(OCC(=O)Nc2ccccc2N2CCN(S(C)(=O)=O)CC2)cc1 [CBK269177] | 89.9
44 | OCCOc1ccnc2ccccc12 [CBK113395] | 95.8
45 | Cc1cc(S(=O)(=O)Nc2cccc(C(=O)O)c2)c(C)c(S(=O)(=O)c2ccccc2)c1 [CBK263227] | 88.3
46 | C[C@H](Nc1cncc(-c2ccc3c(c2)OCO3)n1)c1ccccc1 [CBK065962] | 90.3

Row | Compound | viability at 28.5 h, 10 µM [%]
47 | FC(F)(F)c1nc2ccccc2nc1SCCc1ccccn1 [CBK103731] | 109
48 | Cc1cc(=O)oc2cc(NC(=S)NNC(=O)C(C)Oc3ccc4c(c3)CCC4)ccc12 (stereo not drawn) [CBK267031] | 91.4
49 | COc1cccc2c3c([nH]c12)C1(CCN(CCCC#N)CC1)N(C(C)=O)CC3 [CBK039722] | 99.6
50 | N#Cc1ccc(C(=O)Nc2ccc3n(c2=O)C[C@H]2C[C@@H]3CN(C(=O)c3ccccc3)C2)cc1 [CBK289073] | 109
51 | Cc1cc(CCCC(=O)NCc2ccc(-c3ccc(C(N)=O)c(C)n3)cc2)ccc1F [CBK286016] | 90.3
52 | CCCCOc1ccc(-c2nc(SCC(=O)O)c3c4c(sc3n2)COC(C)(C)C4)cc1 [CBK267716] | 99.1
53 | c1ncc(N2CCCC2)nc1OC1CCOC1 (stereo not drawn) [CBK115893] | 91.3
54 | Cc1cccc(NC(=O)c2cc(NC(=O)C3CCCCC3C(=O)O)ccc2N2CCCCC2)c1 (stereo not drawn) [CBK267332] | 97.3
55 | Cc1cccc(C(=O)N2CCCCC2CN(C)C)c1 (stereo not drawn) [CBK074171] | 81.7
56 | CCOC(=O)c1c(NC(=O)CSc2nnc[nH]2)sc2c1CCCC2 [CBK265999] | 93.1
57 | CN(C)S(=O)(=O)c1ccc(NC(=O)c2ccc(-c3ccccc3)cc2)cc1 [CBK267322] | 104
58 | CC(C)(C)Cc1ccc(CC(=O)O)c(OCc2ccccc2)n1 [CBK012508] | 92.6
59 | CCN(CC)C(=O)c1ccc(-n2ccnc2)c(-n2cccc2)c1 [CBK285371] | 86.3
60 | Cc1ccc(CN[C@@H]2COC[C@H]2Cc2cc(C)no2)cc1 [CBK283030] | 106
61 | Cc1cccc(CN(Cc2ccccc2)C(=O)CCc2ccncc2)n1 [CBK282101] | 99.1
62 | CC(C)C1OC(NCc2ccccc2Cl)=NC1=O (stereo not drawn) [CBK070344] | 95.1
63 | CNC(=O)c1sc2ccccc2c1C1CCN(C(=O)Cc2coc3c(C)c(C)ccc23)C1 (stereo not drawn) [CBK285876] | 90.3
64 | COc1cc(Nc2nc(-c3cccc(NC(C)=O)c3)cn3ccnc23)cc(OC)c1OC [CBK038093] | 99.7
65 | CCCc1nn(CC(=O)OC)c(=O)c2cc3ccsc3n12 [CBK284144] | 98.7
66 | Cc1ccc(OCc2nc(C)c(C(=O)N3CCCC(C)C3)s2)cc1 (stereo not drawn) [CBK305356] | 94.3
67 | C=C(C)CNC(=O)c1cc(Br)cnc1N(C)S(C)(=O)=O [CBK076498] | 94.6
68 | COc1cc(-c2cncc(NCCc3ccncc3)n2)cc(OC)c1OC [CBK065405] | 94.4
69 | O=C(N/N=C/c1ccncc1)C1CC1C(=O)N/N=C/c1ccncc1 (stereo not drawn) [CBK261115] | 90.2

Row | Compound | viability at 28.5 h, 10 µM [%]
70 | CC(C)C1OC(N2CCOCC2)=NC1=O (stereo not drawn) [CBK070384] | 92.3
71 | COc1cccc(Cn2c(C3CCNCC3)cc3cccnc32)c1 [CBK285076] | 91.5
72 | O=C(c1cscn1)N1CCCc2ccccc21 [CBK200348] | 102
73 | CCCOCCCNS(=O)(=O)c1ccc(C(C)(C)CC)cc1 [CBK044821] | 106
74 | Cc1cc(C)cc(N(C(C)C(=O)Nc2ccc(C(F)(F)F)cc2)S(C)(=O)=O)c1 (stereo not drawn) [CBK268834] | 89.6
75 | N#CCCCN1CCC(Oc2nccnc2OCc2cccc(OCc3ccccc3)c2)CC1 [CBK161572] | 97.5
76 | CCOc1ccc(Oc2nc(N(C)C)nc(N3CCOCC3)n2)nn1 [CBK269585] | 104
77 | Cc1ccc(SCCNS(=O)(=O)c2cccc([N+](=O)[O-])c2)cc1 [CBK267508] | 81.4
78 | C=CCN1C(=O)C2(CC(=O)N(Cc3ccccc3)C2=O)c2cc(OC)ccc21 (stereo not drawn) [CBK075281] | 103
79 | CN(C)c1ccc(-c2nccnc2NS(=O)(=O)c2ccc(C(F)(F)F)cc2)cc1 [CBK050802] | 95.1
80 | CCOC(=O)CN(C)Cc1c[nH]c2ccccc12 [CBK261869] | 107
81 | O=C(NC1CC2(CCOCC2)Oc2ccccc21)c1ccco1 (stereo not drawn) [CBK285378] | 98
82 | OC1(c2cccnc2F)CCN(Cc2cc(F)cc(F)c2)CC1 [CBK285375] | 81.5
83 | CS(=O)(=O)Nc1ccccc1C(=O)NCCCN1CCOCC1 [CBK269745] | 112
84 | O=C(C1=C(O)C(=O)N(CCCN2CCOCC2)C1c1ccc(Cl)c(Cl)c1)c1cccs1 (stereo not drawn) [CBK264565] | 104
85 | CCCC/C=C/c1cnc2[nH]c(=O)n(Cc3ccccn3)c2n1 [CBK064365] | 102
86 | OC1(Cn2ccc3ncccc32)CCN(CC2CC=CCC2)CC1 (stereo not drawn) [CBK284782] | 93.6
87 | O=C(NCCN1CCOCC1)c1sc2cc(F)ccc2c1Cl [CBK018212] | 120
88 | CC(=O)Nc1cccc(Oc2cnc(-c3ccc(OC(F)(F)F)cc3)c(N)n2)c1 [CBK145119] | 91.9
89 | COC(=O)c1csc(-c2ccc(Cl)cc2Cl)n1 [CBK067776] | 103
90 | CC(=O)OC(C(=O)O)C(OC(C)=O)C(=O)O (stereo not drawn) [CBK261063] | 95.5
